# Results published in patent publication US9745297B2, “Compounds as modulators of RORC” (Boehringer Ingelheim International GmbH, priority 2013, dated 2017).
# Target: T1, RORγt (Homo sapiens, UniProt P51449)
# T1 construct: expressed in transfected cells
# T1 sequence (P51449 269-508 limits assumed): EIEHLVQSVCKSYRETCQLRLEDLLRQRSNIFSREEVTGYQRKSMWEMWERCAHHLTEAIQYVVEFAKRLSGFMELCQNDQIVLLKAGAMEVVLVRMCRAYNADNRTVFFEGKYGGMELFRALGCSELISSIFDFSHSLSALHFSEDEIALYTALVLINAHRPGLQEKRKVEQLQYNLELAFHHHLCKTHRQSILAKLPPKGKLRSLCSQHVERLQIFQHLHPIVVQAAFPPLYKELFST
# Experiment: RGA Assay: nuclear receptor transactivation assay, RORγt transactivation of a luciferase reporter
# Format: cell-based
# Conditions: transiently transfected HEK 293 cells (pGL4.3 luc2P/GAL4UAS, pBIND Gal4DBD hRORC LBD), 20-24 hours incubation, luciferase readout
# Procedure: A nuclear receptor transactivation assay was performed to quantitate the ability of test compounds to inhibit RORγt transactivation of a luciferase reporter. A similar assay is described in: Khan et al., Bioorganic & Medicinal Chemistry Letters 23 (2013), 532-536. The system uses transiently transfected HEK 293 cells cotransfected with two plasmids (pGL4.3, luc2P/GAL4UAS/Hygro, and pBIND, Ga14DBD hRORC LBD1-3). The positive control is co-transiently transfected with both plasmids, and the negative control contains the pGL4.3 promoter sequence. Assays were assembled in 384 well plates where transiently transfected cells and test compound at varying concentrations were incubated for 20-24 hours. The next day, assays plates are taken out and equillibrated at RT for 20-30 minutes. Bright-Glo™ Luciferase Assay System is used to detect Luciferase production. After addition of Bright GLO detection reagent, the plates were incubated at RT for 20 minutes. The plates were read on an Envision plate reader to measure luminescence signal. The RLU signal is converted to POC relative to control and blank wells.
# Compound Dilution Buffer:
# Bright Glo Luciferase Assay System: Promega #E2620
# Thaw lysis buffer provided in kit, add 100 mL lysis buffer to substrate powder.
row,IC50 [µM],Compound
1,3.7,COc1ncnc(C(F)(F)F)c1-c1ccc2c(n1)C1(CCCC1)CN2C(=O)NCc1ccc(S(C)(=O)=O)cc1 [Example 75]
2,12,Cc1cc(O)ccc1-c1ccc2c(n1)C(C)(C)CN2C(=O)NCc1ccc(S(C)(=O)=O)cc1 [Example 21]
3,0.76,CCOc1ncnc(C2CC2)c1-c1ccc2c(n1)C1(CCCC1)CN2C(=O)NCc1ccc(S(=O)(=O)CC)cc1 [Example 70]
4,1.8,CNS(=O)(=O)c1ccc(CNC(=O)N2CC(C)(C)c3nc(-c4ccc(OC)cc4C(F)(F)F)ccc32)cc1 [Example 23]
5,> 30,CCS(=O)(=O)c1ccc(CNC(=O)N2CC3(CCCC3)c3nc(-c4cc(CN5CC[C@@H](O)C5)ccc4C)ccc32)cc1 [Example 84]
6,> 30,CCS(=O)(=O)c1ccc(CNC(=O)N2CC3(CCCC3)c3nc(-c4c(C)n[nH]c4C)ccc32)cc1 [Example 31]
7,> 30,CC(C)c1ncncc1-c1cc2c(cn1)N(C(=O)NCc1ccc(S(C)(=O)=O)cc1)CC2(C)C [Example 88]
8,> 30,CC1(C)CN(C(=O)NCc2ccc(S(C)(=O)=O)cc2)c2ccc(Br)nc21 [Example 16]
9,> 30,CCS(=O)(=O)c1ccc(CNC(=O)N2CC3(CCCC3)c3nc(-c4cn5ccnc5cc4C)ccc32)cc1 [Example 63]
10,0.73,CCS(=O)(=O)c1cnc(CNC(=O)N2CC3(CCCC3)c3nc(-c4c(OC)ncnc4C4CC4)ccc32)nc1 [Example 102]
11,1.6,CCS(=O)(=O)c1ccc(CNC(=O)N2CC3(CCCC3)c3nc(-c4ncc(N(C)C)nc4C4CC4)ccc32)cc1 [Example 40]
12,17,CCS(=O)(=O)c1ccc(CNC(=O)N2CC3(CCCC3)c3nc(-c4sc(N)nc4C(F)(F)F)ccc32)cc1 [Example 32]
13,2.5,CC(C)Oc1ncnc(C2CC2)c1-c1ccc2c(n1)C1(CCCC1)CN2C(=O)NCc1ccc(S(C)(=O)=O)cc1 [Example 68]
14,8,COc1cc(C)c(-c2ccc3c(n2)C2(CCCC2)CN3C(=O)NCc2ccc(S(C)(=O)=O)cc2)cn1 [Example 58]
15,> 30,Cc1cc(C#N)ccc1-c1cc2c(cn1)N(C(=O)NCc1ccc(S(C)(=O)=O)cc1)CC2(C)C [Example 92]
16,8.5,CNS(=O)(=O)c1ccc(CNC(=O)N2CC(C)(C)c3nc(-c4ccc(O)cc4C)ccc32)cc1 [Example 43]
17,2.4,CNS(=O)(=O)c1ccc(CNC(=O)N2CC(C)(C)c3nc(-c4c(OC)ncnc4C4CC4)ccc32)cc1 [Example 78]
18,1.6,CC(C)c1ncncc1-c1ccc2c(n1)C1(CCCC1)CN2C(=O)NCc1ccc(S(C)(=O)=O)cc1 [Example 56]
19,> 30,CCS(=O)(=O)c1ccc(CNC(=O)N2CC3(CCCC3)c3nc(-c4c(C)nn(CCN(C)C)c4C)ccc32)cc1 [Example 28]
20,0.42,CCc1ncnc(C2CC2)c1-c1ccc2c(n1)C1(CCCC1)CN2C(=O)NCc1ccc(S(=O)(=O)CC)cn1 [Example 101]
21,10,CNS(=O)(=O)c1ccc(CNC(=O)N2CC(C)(C)c3nc(-c4ccc(F)cc4C)ccc32)cc1 [Example 42]

row,IC50 [µM],Compound
1,12,COc1ccc(-c2ccc3c(n2)C(C)(C)CN3C(=O)NCc2ccc(C#N)cc2)c(C(F)(F)F)c1 [Example 4]
2,4,COc1ncnc(C2CC2)c1-c1ccc2c(n1)C(C)(C)CN2C(=O)NCc1ccc(S(C)(=O)=O)cc1 [Example 77]
3,0.2,CCS(=O)(=O)c1ccc(CNC(=O)N2CC3(CCCC3)c3nc(-c4c(C5CC5)ncnc4C4CC4)ccc32)cc1 [Example 97]
4,15,CCS(=O)(=O)N1CCC(CNC(=O)N2CC3(CCCC3)c3nc(-c4c(OC)ncnc4C4CC4)ccc32)CC1 [Example 76]
5,> 30,Cc1cc(O)ccc1-c1cc2c(cn1)N(C(=O)NCc1ccc(S(C)(=O)=O)cc1)CC2(C)C [Example 91]
6,1.5,CCC1(C)CN(C(=O)NCc2ccc(S(=O)(=O)CC)cc2)c2ccc(-c3c(OC)ncnc3C3CC3)nc21 (centres unmarked) [Example 73]
7,19,CC(C)c1ncncc1-c1ccc2c(n1)C(C)(C)CN2C(=O)NCc1ccc(S(C)(=O)=O)cc1 [Example 20]
8,0.36,CCS(=O)(=O)c1ccc(CNC(=O)N2CC3(CCCC3)c3nc(-c4c(C)ncnc4C(F)(F)F)ccc32)cc1 [Example 99]
9,0.22,CCc1ncnc(C2CC2)c1-c1ccc2c(n1)C1(CCCC1)CN2C(=O)NCc1ccc(S(=O)(=O)CC)cc1 [Example 100]
10,0.74,CCS(=O)(=O)c1ccc(CNC(=O)N2CC3(CCCC3)c3cc(-c4c(OC)ncnc4C4CC4)ncc32)cc1 [Example 93]
11,3.9,COc1ccc(-c2cc3c(cn2)N(C(=O)NCc2ccc(S(C)(=O)=O)cc2)CC3(C)C)c(C(F)(F)F)c1 [Example 87]
12,> 30,CNS(=O)(=O)c1ccc(CNC(=O)N2CC(C)(C)c3nc(Br)ccc32)cc1 [Example 17]
13,0.83,CCS(=O)(=O)c1ccc(CNC(=O)N2CC3(CCCC3)c3nc(-c4c(OC(C)C)ncnc4C4CC4)ccc32)cc1 [Example 67]
14,> 30,CS(=O)(=O)c1ccc(CNC(=O)N2CC3(CCCC3)c3nc(Cl)ccc32)cc1 [Example 62]
15,> 30,CNC(=O)c1ccc(-c2ccc3c(n2)C2(CCCC2)CN3C(=O)NCc2ccc(S(C)(=O)=O)cc2)c(C)c1 [Example 8]
16,0.71,CNS(=O)(=O)c1ccc(CNC(=O)N2CC3(CCCC3)c3nc(-c4ccc(OC)cc4C(F)(F)F)ccc32)cc1 [Example 51]
17,0.48,CCS(=O)(=O)c1ccc(CNC(=O)N2CC3(CCCC3)c3nc(-c4ccc(O)cc4C)ccc32)cc1 [Example 15]
18,18,CNS(=O)(=O)c1ccc(CNC(=O)N2CC(C)(C)c3nc(-c4cnc(OC)cc4C)ccc32)cc1 [Example 44]
19,> 30,CCS(=O)(=O)c1ccc(CNC(=O)N2CC3(CCCC3)c3nc(-c4nnccc4C(F)(F)F)ccc32)cc1 [Example 39]
20,0.48,CCS(=O)(=O)c1ccc(CNC(=O)N2CC3(CCCC3)c3nc(-c4ccc(OC)cc4C(F)(F)F)ccc32)cc1 [Example 12]
21,11,CCS(=O)(=O)c1ccc(CNC(=O)N2CC3(CCCC3)c3nc(-c4ccc(C#N)cc4C)ccc32)cc1 [Example 10]

row,IC50 [µM],Compound
1,4.3,CCNC(=O)c1ccc(-c2ccc3c(n2)C2(CCCC2)CN3C(=O)NCc2ccc(S(C)(=O)=O)cc2)c(C)c1 [Example 9]
2,16,CCS(=O)(=O)c1ccc(CNC(=O)N2CC3(CCCC3)c3nc(-c4cnc(C#N)nc4C4CC4)ccc32)cc1 [Example 64]
3,0.37,CCS(=O)(=O)c1ccc(CNC(=O)N2CC3(CCCC3)c3nc(-c4c(C5CC5)ncnc4C4CC4)ccc32)nc1 [Example 98]
4,6.6,CC1(C)CN(C(=O)NCc2ccc(S(C)(=O)=O)cc2)c2ccc(Oc3ccc(F)c(OC(F)(F)F)c3)nc21 [Example 48]
5,3.4,COc1ccc(-c2ccc3c(n2)C(C)(C)CN3C(=O)NCc2ccc(S(C)(=O)=O)cc2)c(C(F)(F)F)c1 [Example 18]
6,2.6,CNS(=O)(=O)c1ccc(CNC(=O)N2CC3(CCCC3)c3cc(-c4ccc(F)cc4C)ncc32)cc1 [Example 86]
7,0.11,CCS(=O)(=O)c1ccc(CNC(=O)N2CC3(CCCC3)c3nc(-c4ccc(O)cc4C(F)(F)F)ccc32)cc1 [Example 11]
8,16,CCS(=O)(=O)c1ccc(CNC(=O)N2CC3(CCCC3)c3nc(-c4c(C)nn(C)c4C)ccc32)cc1 [Example 36]
9,8.6,Cc1cc(F)ccc1-c1ccc2c(n1)C1(CCCC1)CN2C(=O)NCc1ccc(S(C)(=O)=O)cc1 [Example 50]
10,1.2,CCS(=O)(=O)c1ccc(CNC(=O)N2CC3(CCCC3)c3nc(-c4cnc(N(C)C)nc4C(F)(F)F)ccc32)cc1 [Example 33]
11,> 30,CCS(=O)(=O)c1ccc(CNC(=O)N2CC3(CCCC3)c3nc(-c4nc(C)cnc4C)ccc32)cc1 [Example 41]
12,> 30,CCS(=O)(=O)c1ccc(CNC(=O)N2CC3(CCCC3)c3nc(-c4ncc(C)nc4C)ccc32)cc1 [Example 37]
13,18,CS(=O)(=O)c1ccc(CNC(=O)N2CC3(CCCC3)c3nc(-c4cnc(C#N)nc4C4CC4)ccc32)cc1 [Example 65]
14,15,COc1cc(C)c(-c2ccc3c(n2)C2(CCCC2)CN3C(=O)NCc2ccc(C#N)cc2)cn1 [Example 47]
15,5.2,CCS(=O)(=O)c1ccc(CNC(=O)N2CC3(CCCC3)c3nc(-c4cnc(OC)cc4C)ccc32)cc1 [Example 13]
16,> 30,CCS(=O)(=O)c1ccc(CNC(=O)N2CC3(CCCC3)c3cc(-c4cnc(OC)nc4C4CC4)ncc32)cc1 [Example 95]
17,1.7,CCS(=O)(=O)c1ccc(CNC(=O)N2CC3(CCCC3)c3nc(-c4c(C(C)C)n[nH]c4C)ccc32)cc1 [Example 29]
18,> 30,Cc1cc(F)ccc1-c1ccc2c(n1)C(C)(C)CN2C(=O)NCc1ccc(S(C)(=O)=O)cc1 [Example 22]
19,4.1,CNS(=O)(=O)c1ccc(CNC(=O)N2CC(C)(C)c3nc(Oc4ccc(F)c(OC(F)(F)F)c4)ccc32)cc1 [Example 49]
20,0.35,CCS(=O)(=O)c1ccc(CNC(=O)N2CC3(CCCC3)c3nc(-c4c(OC)ncnc4C4CC4)ccc32)cc1 [Example 26]
